Assays:
[1] = molecular target: Calcium/calmodulin-dependent protein kinase type II subunit beta (Homo sapiens) (UniProt Q13554); assay: Residual activity of CAMK2B at 1 uM by microplate scintillation counting
[2] = molecular target: T1, Myotonin-protein kinase (Homo sapiens) (UniProt Q09013); assay: Residual activity of DMPK at 10 uM by microplate scintillation counting
T1 sequence (whole entry): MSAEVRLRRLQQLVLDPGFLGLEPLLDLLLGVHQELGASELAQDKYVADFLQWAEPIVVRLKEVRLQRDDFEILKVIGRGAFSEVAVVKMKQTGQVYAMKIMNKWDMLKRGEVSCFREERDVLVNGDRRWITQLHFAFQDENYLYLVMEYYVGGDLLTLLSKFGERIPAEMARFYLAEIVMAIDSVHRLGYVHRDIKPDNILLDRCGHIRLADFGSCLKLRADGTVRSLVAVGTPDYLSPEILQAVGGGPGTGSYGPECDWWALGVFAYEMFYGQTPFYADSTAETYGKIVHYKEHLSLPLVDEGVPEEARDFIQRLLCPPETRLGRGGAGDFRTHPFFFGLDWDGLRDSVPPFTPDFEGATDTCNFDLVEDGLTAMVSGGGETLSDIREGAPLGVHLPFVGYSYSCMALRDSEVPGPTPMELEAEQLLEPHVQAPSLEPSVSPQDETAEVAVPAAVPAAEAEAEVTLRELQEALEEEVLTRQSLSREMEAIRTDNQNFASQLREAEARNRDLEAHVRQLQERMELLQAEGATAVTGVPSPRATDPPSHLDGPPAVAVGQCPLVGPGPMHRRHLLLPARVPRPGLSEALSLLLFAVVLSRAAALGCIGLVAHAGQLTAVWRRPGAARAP

[3] = molecular target: Cyclin-dependent kinase 5/CDK5 activator 1 (Homo sapiens) (UniProt Q00535+Q15078); assay: Residual activity of CDK5/p35NCK at 10 uM by microplate scintillation counting; assay type: protein-complex assay
Sequence of Cyclin-dependent kinase 5/CDK5 activator 1 (Homo sapiens) (Q00535 whole entry): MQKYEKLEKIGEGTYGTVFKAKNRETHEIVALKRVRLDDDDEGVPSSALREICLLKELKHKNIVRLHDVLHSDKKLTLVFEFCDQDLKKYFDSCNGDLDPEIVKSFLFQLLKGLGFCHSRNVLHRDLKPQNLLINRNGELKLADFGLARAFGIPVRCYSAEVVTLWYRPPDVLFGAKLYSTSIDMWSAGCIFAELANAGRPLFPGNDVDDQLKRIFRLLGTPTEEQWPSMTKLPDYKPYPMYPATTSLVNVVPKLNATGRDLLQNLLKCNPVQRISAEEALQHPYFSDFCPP
Sequence of Cyclin-dependent kinase 5/CDK5 activator 1 (Homo sapiens) (Q15078 99-307 partner limits assumed): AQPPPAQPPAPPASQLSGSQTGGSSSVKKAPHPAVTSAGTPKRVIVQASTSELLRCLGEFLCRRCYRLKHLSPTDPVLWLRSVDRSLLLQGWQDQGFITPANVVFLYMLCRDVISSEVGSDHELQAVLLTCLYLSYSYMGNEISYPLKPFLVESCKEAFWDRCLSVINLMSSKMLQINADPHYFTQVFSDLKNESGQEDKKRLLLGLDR

[4] = molecular target: T2, Serine/threonine-protein kinase PLK4 (Homo sapiens) (UniProt O00444); assay: Residual activity of SAK at 0.1 uM by microplate scintillation counting
T2 sequence (whole entry): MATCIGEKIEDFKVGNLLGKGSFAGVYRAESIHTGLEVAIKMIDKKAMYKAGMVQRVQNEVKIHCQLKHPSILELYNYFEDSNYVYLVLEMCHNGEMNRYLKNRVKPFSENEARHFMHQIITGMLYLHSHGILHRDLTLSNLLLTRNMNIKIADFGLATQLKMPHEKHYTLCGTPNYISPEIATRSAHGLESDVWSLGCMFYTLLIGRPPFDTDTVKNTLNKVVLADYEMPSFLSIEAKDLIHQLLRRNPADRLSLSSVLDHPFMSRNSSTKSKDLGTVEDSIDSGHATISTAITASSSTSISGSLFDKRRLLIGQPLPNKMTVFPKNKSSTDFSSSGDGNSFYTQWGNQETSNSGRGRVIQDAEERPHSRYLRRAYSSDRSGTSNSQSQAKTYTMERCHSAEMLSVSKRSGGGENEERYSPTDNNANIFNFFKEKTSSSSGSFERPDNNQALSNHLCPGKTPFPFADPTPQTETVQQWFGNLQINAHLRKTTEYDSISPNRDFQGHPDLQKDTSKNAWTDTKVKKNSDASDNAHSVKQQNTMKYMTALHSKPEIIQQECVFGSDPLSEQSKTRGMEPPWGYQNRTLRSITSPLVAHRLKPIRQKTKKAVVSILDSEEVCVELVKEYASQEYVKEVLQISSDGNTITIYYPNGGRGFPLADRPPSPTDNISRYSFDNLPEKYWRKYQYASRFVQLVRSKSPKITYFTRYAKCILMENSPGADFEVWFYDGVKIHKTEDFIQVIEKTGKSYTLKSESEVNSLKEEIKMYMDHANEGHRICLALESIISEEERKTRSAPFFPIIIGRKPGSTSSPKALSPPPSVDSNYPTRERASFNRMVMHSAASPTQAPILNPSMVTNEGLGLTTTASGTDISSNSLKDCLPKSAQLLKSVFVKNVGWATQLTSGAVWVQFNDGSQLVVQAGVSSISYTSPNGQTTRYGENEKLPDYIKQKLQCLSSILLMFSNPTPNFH

[5] = molecular target: T3, Serine/threonine-protein kinase Nek1 (Homo sapiens) (UniProt Q96PY6); assay: Residual activity of NEK1 at 10 uM by microplate scintillation counting
T3 sequence (whole entry): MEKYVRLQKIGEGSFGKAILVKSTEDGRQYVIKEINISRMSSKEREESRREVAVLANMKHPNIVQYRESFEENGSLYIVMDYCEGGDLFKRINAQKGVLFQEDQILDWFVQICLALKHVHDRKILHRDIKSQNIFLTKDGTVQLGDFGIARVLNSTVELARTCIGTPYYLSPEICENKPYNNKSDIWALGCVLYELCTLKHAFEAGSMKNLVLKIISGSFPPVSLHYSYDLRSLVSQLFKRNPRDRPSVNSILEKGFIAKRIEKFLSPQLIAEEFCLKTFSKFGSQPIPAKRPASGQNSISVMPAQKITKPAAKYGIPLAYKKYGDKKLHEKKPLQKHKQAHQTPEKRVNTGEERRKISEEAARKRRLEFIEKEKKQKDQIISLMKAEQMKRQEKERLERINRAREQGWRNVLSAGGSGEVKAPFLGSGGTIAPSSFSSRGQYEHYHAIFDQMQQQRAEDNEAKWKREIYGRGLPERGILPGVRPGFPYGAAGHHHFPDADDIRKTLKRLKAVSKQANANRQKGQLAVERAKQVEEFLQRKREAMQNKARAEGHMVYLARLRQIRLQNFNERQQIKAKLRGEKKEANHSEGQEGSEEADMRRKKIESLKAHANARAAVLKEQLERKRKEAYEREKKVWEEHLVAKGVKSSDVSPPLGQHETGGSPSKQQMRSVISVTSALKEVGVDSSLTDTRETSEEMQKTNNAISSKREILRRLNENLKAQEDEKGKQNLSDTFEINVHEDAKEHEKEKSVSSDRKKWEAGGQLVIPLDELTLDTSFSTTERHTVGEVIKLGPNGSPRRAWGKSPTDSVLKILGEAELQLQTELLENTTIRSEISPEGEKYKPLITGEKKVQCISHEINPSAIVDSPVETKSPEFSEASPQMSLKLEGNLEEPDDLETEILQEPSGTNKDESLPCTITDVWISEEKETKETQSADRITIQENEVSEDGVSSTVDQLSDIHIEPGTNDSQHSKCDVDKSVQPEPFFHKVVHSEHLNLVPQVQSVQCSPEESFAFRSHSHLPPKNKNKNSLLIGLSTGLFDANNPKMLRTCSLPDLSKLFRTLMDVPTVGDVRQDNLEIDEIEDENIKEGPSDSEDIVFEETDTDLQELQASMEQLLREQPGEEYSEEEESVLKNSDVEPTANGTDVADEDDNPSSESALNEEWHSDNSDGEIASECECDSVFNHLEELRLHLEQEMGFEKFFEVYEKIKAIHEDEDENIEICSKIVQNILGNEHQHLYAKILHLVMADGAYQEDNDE

[6] = molecular target: Serine/threonine-protein kinase PAK 2 (Homo sapiens) (UniProt Q13177); assay: Residual activity of PAK2 at 10 uM by microplate scintillation counting
Sequence of Serine/threonine-protein kinase PAK 2 (Homo sapiens) (Q13177 whole entry): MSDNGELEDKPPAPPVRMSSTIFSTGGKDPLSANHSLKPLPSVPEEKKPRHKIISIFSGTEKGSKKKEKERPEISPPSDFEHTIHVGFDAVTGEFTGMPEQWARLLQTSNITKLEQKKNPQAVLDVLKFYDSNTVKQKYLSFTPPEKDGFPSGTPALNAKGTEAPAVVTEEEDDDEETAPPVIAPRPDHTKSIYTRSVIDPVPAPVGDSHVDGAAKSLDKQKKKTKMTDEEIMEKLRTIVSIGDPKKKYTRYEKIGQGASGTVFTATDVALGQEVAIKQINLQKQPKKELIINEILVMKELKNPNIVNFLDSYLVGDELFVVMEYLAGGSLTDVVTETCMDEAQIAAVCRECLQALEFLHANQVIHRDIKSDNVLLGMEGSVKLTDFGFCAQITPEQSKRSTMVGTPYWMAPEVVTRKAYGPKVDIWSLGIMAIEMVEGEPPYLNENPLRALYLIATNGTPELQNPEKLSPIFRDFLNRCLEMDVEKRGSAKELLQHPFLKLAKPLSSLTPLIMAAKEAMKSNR

Sequence of Calcium/calmodulin-dependent protein kinase type II subunit beta (Homo sapiens) (Q13554 whole entry): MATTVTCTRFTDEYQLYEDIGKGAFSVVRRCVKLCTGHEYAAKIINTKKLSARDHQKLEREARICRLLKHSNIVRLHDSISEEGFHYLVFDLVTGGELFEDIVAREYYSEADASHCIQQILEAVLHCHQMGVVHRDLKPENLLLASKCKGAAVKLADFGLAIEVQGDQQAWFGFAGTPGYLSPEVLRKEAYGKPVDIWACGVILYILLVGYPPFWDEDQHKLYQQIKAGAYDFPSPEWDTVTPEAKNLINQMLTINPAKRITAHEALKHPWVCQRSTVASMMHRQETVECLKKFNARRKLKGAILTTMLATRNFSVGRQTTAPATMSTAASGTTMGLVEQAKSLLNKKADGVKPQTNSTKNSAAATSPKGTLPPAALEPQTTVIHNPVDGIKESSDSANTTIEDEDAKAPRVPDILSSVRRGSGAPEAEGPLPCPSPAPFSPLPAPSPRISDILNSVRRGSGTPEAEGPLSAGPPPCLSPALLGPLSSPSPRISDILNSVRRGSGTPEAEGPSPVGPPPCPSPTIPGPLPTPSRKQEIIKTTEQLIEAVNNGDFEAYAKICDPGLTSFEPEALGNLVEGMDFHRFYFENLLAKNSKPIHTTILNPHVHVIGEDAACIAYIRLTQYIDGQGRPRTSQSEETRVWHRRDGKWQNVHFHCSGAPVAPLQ

residual activity [1] [%] | residual activity [2] [%] | residual activity [3] [%] | residual activity [4] [%] | residual activity [5] [%] | residual activity [6] [%] | SMILES
103 | 88 | 96 | 63 | 104 | 54 | COc1cc2c(Oc3ccc(-c4nc5ccccc5s4)cc3)ncnc2cc1OCCCN1CCN(C)CC1
70 | 118 | 98 | 56 | 93 | 49 | COc1cc2c(Oc3ccc(-c4nc5ccccc5s4)cc3)ncnc2cc1OCCCN1CCCC1
82 | 166 | 86 | 80 | 101 | 48 | COc1cc2c(Oc3ccc(-c4nc5ccccc5s4)cc3F)ncnc2cc1OCCCN1CCN(C)CC1

— ChEMBL document CHEMBL1152560, “Substituted 2-arylbenzothiazoles as kinase inhibitors: hit-to-lead optimization” (Bioorg Med Chem, 2009)
